Numbered stars: 1 amine (or outer) side, 2 acyl side, 3 side chain; on linkers, the order of the positions; unused ones are H or OH. Bridge positions count the residues as written; N and C are the ends. Square brackets hold non-standard residues; d marks the D form. Peptide text beside a SMILES is read from it. X2 = O=C(CC1(S[*:2])CCCCC1)[*:1]; X1 = CC(C)(CC(=O)[*:1])S[*:2]; Mpa = O=C(O)CCS
What was measured:
V1-vasopressin receptors [1] = target: T1, V1-vasopressin receptors (Rattus norvegicus, UniProt P30560); test: reversal of vasopressin-induced contraction of rat thoracic aorta tissue; format: cell-based; settings: rat aortic ring tissue
T1 construct: Rat aortic ring tissue; from tissue; host or cells: rat thoracic aorta rings
Method: (§1) Antagonistic activity of the V1 -vasopressin receptors is determined in a protocol which measures the reversal of the vasopressin-induced contraction of rat thoracic aorta tissue. This is expressed as KB (nM) in the table below. Such anti-pressor activity is confirmed in a similar in vitro protocol using the plasma membranes of rat liver. V2 -vasopressin antagonism is determined as receptor binding ability measured by inhibition of 3H-LVP binding (KB as nM), by inhibition of adenylate cyclase activation by vasopressin in the medullary tissue of hog kidneys (Ki as nM) or in vivo in the hydropenic rat protocol (ED300 μg/kg). These procedures are described in the literature: F. Stassen et al., J. Pharmacology and Experimental Therapeutics, 223 50 (1982); F. Stassen et al., 1st International Conference on Diuretics, Miami, Fla., March (1984). Antagonistic activity at oxytocin receptors is determined in the isolated rat uterus protocol: W. Sawyer, et al., Endocrinology 106 81 (1979); P. Melin, et al., J. of Endocrinology 88 173 (1981).
^c Rat aortic ring tissue, […]

oxytocin receptors = target: T2, oxytocin receptors (Rattus norvegicus, UniProt P70536); test: isolated rat uterus protocol; format: cell-based; settings: read-out: Rat OXT KB
T2 construct: Rat uterus; from tissue; host or cells: isolated rat uterus
T2 sequence (P70536 1-388): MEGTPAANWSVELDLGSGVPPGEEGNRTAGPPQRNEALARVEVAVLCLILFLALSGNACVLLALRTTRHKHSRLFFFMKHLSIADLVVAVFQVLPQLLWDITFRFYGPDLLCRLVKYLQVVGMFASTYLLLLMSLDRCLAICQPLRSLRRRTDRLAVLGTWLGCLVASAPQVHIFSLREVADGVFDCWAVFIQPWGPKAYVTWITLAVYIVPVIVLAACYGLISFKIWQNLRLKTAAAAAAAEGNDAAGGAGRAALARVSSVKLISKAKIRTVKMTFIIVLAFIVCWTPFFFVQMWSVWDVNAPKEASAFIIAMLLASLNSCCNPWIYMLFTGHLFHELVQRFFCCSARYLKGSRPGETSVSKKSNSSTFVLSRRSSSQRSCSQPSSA
Method: as §1

V2-vasopressin receptors [2] = target: T3, V2-vasopressin receptors (Rattus norvegicus, UniProt Q00788); test: hydropenic rat protocol in vivo
T3 construct: Hydropenic rat; from tissue; host or cells: whole animal (hydropenic rat)
Method: as §1

V2-vasopressin receptors [3] = target: T4, V2-vasopressin receptors (Sus scrofa, UniProt P32307); test: inhibition of 3H-LVP binding, medullary pig kidney tissue
T4 construct: Medullary pig kidney tissue; from tissue; host or cells: pig (hog) kidney medulla
Method: as §1
(§2) ^a Medullary pig kidney tissue, […]

V1-vasopressin receptors [4] = target: T1, V1-vasopressin receptors; test: in vitro protocol using plasma membranes of rat liver; format: binding; settings: rat liver membrane
Method: as §1

V2-vasopressin receptors [5] = target: T4, V2-vasopressin receptors; test: inhibition of adenylate cyclase activation by vasopressin, medullary pig kidney tissue; format: biochemical
Method: as §1, §2

T1 sequence (P30560 whole entry): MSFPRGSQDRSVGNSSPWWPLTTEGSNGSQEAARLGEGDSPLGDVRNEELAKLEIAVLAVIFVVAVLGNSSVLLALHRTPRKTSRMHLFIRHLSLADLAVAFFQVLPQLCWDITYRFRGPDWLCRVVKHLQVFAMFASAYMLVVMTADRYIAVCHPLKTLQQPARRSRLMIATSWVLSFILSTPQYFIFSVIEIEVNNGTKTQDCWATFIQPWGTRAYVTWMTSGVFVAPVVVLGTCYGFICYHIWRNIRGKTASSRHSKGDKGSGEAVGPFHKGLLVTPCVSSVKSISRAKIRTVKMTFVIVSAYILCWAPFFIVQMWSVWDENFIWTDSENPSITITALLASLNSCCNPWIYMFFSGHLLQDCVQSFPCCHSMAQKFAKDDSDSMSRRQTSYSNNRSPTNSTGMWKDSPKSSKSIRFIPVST
T4 sequence (P32307 whole entry): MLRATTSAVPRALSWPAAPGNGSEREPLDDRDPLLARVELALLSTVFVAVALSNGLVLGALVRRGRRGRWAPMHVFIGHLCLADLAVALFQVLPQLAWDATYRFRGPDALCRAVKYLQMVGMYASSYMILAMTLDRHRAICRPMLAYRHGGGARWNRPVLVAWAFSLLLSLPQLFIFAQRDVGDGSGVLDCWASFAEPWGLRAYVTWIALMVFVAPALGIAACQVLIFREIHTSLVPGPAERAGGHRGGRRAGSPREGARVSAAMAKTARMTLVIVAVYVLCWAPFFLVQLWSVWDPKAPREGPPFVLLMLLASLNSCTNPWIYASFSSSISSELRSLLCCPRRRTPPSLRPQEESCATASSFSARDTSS
T3 sequence (Q00788 whole entry): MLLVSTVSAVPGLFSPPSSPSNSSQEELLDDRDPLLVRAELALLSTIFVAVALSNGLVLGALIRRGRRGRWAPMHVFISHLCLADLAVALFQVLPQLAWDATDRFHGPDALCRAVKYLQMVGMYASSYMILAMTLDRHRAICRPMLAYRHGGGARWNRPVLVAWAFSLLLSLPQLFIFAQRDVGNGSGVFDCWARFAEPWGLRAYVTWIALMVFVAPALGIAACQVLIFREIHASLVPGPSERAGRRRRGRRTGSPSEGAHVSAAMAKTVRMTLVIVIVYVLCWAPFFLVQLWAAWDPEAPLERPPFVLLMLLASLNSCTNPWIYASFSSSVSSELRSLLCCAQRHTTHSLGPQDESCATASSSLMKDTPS

SMILES: COc1ccc(C[C@@H]2NC(=O)CC(C)(C)SSC[C@@H](C(=O)N[C@@H](CCCNC(=N)N)C(N)=O)NC(=O)[C@H](CC(N)=O)NC(=O)[C@H](CCC(N)=O)NC(=O)[C@H](Cc3ccccc3)NC2=O)cc1 [A] (Y(Me)FQNCR-NH2; linker N-5 via X1)
- Kb (V1-vasopressin receptors [1]): 5.69 nM
- Kb (oxytocin receptors): 32.6 nM
- Rat V2 ED300 (V2-vasopressin receptors [2]): > 5.959 mg/kg
- Kb (V2-vasopressin receptors [3]): 3000 nM
- Kb (V1-vasopressin receptors [4]): 38 nM

SMILES: COc1ccc(C[C@@H]2NC(=O)CC(C)(C)SSC[C@@H](C(=O)N[C@@H](CCCNC(=N)N)C(=O)NCC(N)=O)NC(=O)[C@H](CC(N)=O)NC(=O)[C@H](CCC(N)=O)NC(=O)[C@H](Cc3ccccc3)NC2=O)cc1 [B] (Y(Me)FQNCRG-NH2; linker N-5 via X1)
- Kb (V1-vasopressin receptors [1]): 1.48 nM
- Kb (oxytocin receptors): 18.9 nM
- Rat V2 ED300 (V2-vasopressin receptors [2]): > 5.977 mg/kg
- Kb (V2-vasopressin receptors [3]): 3300 nM
- Kb (V1-vasopressin receptors [4]): 37 nM

SMILES: CCOc1ccc(C[C@H]2NC(=O)CC(C)(C)SSC[C@@H](C(=O)N[C@@H](CCCNC(=N)N)C(N)=O)NC(=O)[C@H](CC(N)=O)NC(=O)[C@H](CCC(N)=O)NC(=O)[C@H](Cc3ccccc3)NC2=O)cc1 [C] ([dY](Et)FQNCR-NH2; linker N-5 via X1)
- Kb (V1-vasopressin receptors [1]; estimated, compound noncompetitive): 0.0072 nM
- Kb (oxytocin receptors): 1.88 nM
- Kb (V2-vasopressin receptors [3]): 350 nM

SMILES: CCOc1ccc(C[C@H]2NC(=O)CCSSC[C@@H](C(=O)N[C@@H](CCCNC(=N)N)C(N)=O)NC(=O)[C@H](CC(N)=O)NC(=O)[C@H]([C@@H](C)O)NC(=O)[C@H]([C@@H](C)CC)NC2=O)cc1 [D] ([Mpa][dY](Et)ITNCR-NH2; disulfide 1-6)
- Kb (oxytocin receptors): 11.4 nM
- Kb (V2-vasopressin receptors [3]): 1600 nM

SMILES: CCOc1ccc(C[C@H]2NC(=O)CCSSC[C@@H](C(=O)N[C@@H](CCCNC(=N)N)C(=O)NCC(N)=O)NC(=O)[C@H](CC(N)=O)NC(=O)[C@H]([C@@H](C)O)NC(=O)[C@H]([C@@H](C)CC)NC2=O)cc1 [E] ([Mpa][dY](Et)ITNCRG-NH2; disulfide 1-6)
- Kb (oxytocin receptors): 17.7 nM
- Kb (V2-vasopressin receptors [3]): 4100 nM

SMILES: COc1ccc(C[C@@H]2NC(=O)CC(C)(C)SSC[C@@H](C(=O)N3CCC[C@H]3C(=O)N[C@@H](CCCNC(=N)N)C(=O)NCC(N)=O)NC(=O)[C@H](CC(N)=O)NC(=O)[C@H](CCC(N)=O)NC(=O)[C@H](Cc3ccccc3)NC2=O)cc1 [F] (Y(Me)FQNCPRG-NH2; linker N-5 via X1)
- Kb (V2-vasopressin receptors [3]): 70 nM
- Pig V2 Ki (V2-vasopressin receptors [5]): agonist
- Kb (V1-vasopressin receptors [4]): 2.9 nM

SMILES: COc1ccc(C[C@@H]2NC(=O)CC3(CCCCC3)SSC[C@@H](C(=O)N3CCC[C@H]3C(=O)N[C@@H](CCCN=C(N)N)C(=O)NCC(N)=O)NC(=O)[C@H](CC(N)=O)NC(=O)[C@H](CCC(N)=O)NC(=O)[C@H](Cc3ccccc3)NC2=O)cc1 [G] (Y(Me)FQNCPRG-NH2; linker N-5 via X2)
- Kb (V1-vasopressin receptors [1]): 0.026 nM
- Kb (V2-vasopressin receptors [3]): 369 nM
- Ki (V2-vasopressin receptors [5]): 210 nM
- Kb (V1-vasopressin receptors [4]): 0.48 nM
